Laboratory results taken from ChEMBL document CHEMBL5365534, “Discovery of a Novel Ketohexokinase Inhibitor with Improved Drug Distribution in Target Tissue for the Treatment of Fructose Metabolic Disease” (J Med Chem, 2023).
pIC50: −log10 of the molar value. Activity calls are given as the source filed them. The calls are words filed in the database; no cut-off is given here.

Assays:
[1] = in vivo; conditions: Sprague-Dawley, rat, liver, po, 10 mg/kg
Description: Drug concentration in Sprague-Dawley rat liver at 10 mg/kg, po administered as single dose measured upto 24 hrs by LC-MS/MS analysis

[2] = tested on: Rattus norvegicus; experiment: In vivo inhibition of KHK in 16 hr fasted Sprague-Dawley rat assessed as inhibition of metabolic clearance of fructose at 50 to 150 mg/kg, po pretreated for 1 hr followed fructose induction and measured after 0.5 to 3 hrs by ELISA method; type: functional, organism-based; conditions: dose lower 50.0 mg/kg, dose upper […], time upper 4.0 hrs
[3] = in vitro; conditions: human, plasma
Description: Fraction unbound in human plasma

[4] = Metabolic stability in rat hepatocyte assessed as parent compound remaining at 10 uM measured after 4 hrs by LC-MS/MS analysis; type: ADME, cell-based; conditions: hepatocytes, read-out: Stability
[5] = in vitro; conditions: human, liver microsomes
[6] = Oral bioavailability in Beagle dog at 5 mg/kg administered as single dose measured upto 24 hrs by LC-MS/MS analysis; type: ADME, organism-based, Canis lupus familiaris; conditions: in vivo
[7] = molecular target: Cytochrome P450 2D6 (Homo sapiens, UniProt P10635)
Description: Inhibition of CYP2D6 in human liver microsomes at 0.1 to 30 uM measured for 5 mins in presence of NADPH by LC-MS/MS analysis

[8] = in vivo; conditions: Sprague-Dawley, rat, heart, po, 10 mg/kg
Description: Drug concentration in Sprague-Dawley rat heart at 10 mg/kg, po administered as single dose measured upto 24 hrs by LC-MS/MS analysis

[9] = Drug metabolism in dog hepatocytes assessed as glucuronidation metabolite at 10 uM measured upto 240 mins by LC-MS/MS analysis; type: ADME, cell-based, Canis lupus familiaris, Hepatocyte; conditions: 4 h
[10] = MRT (0 to t) in Sprague-Dawley rat at 10 mg/kg, po administered as single dose measured upto 24 hrs by LC-MS/MS analysis; type: ADME, organism-based; conditions: in vivo
[11] = molecular target: Sodium channel protein type 5 subunit alpha (Homo sapiens, UniProt Q14524)
Description: Inhibition of human Nav1.5 by manual-patch clamp assay

[12] = Drug metabolism in mouse hepatocytes assessed as glycine conjugation metabolite at 10 uM measured upto 240 mins by LC-MS/MS analysis; type: ADME, cell-based, Hepatocyte; conditions: 4 h
[13] = molecular target: T1, Cytochrome P450 1A2 (Homo sapiens, UniProt P05177); experiment: Time dependent inhibition of CYP1A2 in human liver microsomes at 10 uM preincubated for 30 mins followed by substrate addition and measured after 15 mins in presence of NADPH by LC-MS/MS analysis; type: ADME, Microsome
T1 sequence (P05177 whole entry): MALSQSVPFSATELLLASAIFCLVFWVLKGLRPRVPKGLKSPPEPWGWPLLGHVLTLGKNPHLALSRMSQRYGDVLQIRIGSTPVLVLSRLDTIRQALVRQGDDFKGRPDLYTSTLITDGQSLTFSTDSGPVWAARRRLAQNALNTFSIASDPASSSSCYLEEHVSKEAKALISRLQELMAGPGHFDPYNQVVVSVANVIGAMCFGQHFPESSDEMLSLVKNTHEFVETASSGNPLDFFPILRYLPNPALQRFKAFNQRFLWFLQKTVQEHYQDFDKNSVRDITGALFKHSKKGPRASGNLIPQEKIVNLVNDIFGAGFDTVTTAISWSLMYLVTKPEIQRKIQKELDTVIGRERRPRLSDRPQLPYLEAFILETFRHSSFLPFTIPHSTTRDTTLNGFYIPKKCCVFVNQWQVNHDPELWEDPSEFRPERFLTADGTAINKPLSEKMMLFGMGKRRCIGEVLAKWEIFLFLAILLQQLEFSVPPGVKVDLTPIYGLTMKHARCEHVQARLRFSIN

[14] = Elimination half life in Beagle dog at 1 mg/kg, iv administered as single dose measured upto 24 hrs by LC-MS/MS analysis; type: ADME, organism-based, Canis lupus familiaris; conditions: in vivo, read-out: beta t1/2 (converted)
[15] = in vitro; conditions: mouse, liver microsomes

Sequence of Cytochrome P450 2D6 (P10635 whole entry): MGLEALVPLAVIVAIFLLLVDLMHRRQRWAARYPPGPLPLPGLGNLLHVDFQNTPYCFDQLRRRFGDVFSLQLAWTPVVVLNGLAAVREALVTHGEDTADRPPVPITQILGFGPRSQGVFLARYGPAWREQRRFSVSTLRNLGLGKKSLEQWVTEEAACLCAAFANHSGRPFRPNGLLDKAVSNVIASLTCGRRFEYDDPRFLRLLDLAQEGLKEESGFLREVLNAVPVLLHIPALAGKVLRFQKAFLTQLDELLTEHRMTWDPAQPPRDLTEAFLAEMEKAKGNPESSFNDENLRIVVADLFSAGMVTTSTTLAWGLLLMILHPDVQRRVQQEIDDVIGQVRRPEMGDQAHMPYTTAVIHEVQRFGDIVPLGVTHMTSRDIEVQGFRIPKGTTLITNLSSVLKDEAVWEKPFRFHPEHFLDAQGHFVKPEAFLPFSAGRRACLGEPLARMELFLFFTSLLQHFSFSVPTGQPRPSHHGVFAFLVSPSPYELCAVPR
Sequence of Sodium channel protein type 5 subunit alpha (Q14524 whole entry): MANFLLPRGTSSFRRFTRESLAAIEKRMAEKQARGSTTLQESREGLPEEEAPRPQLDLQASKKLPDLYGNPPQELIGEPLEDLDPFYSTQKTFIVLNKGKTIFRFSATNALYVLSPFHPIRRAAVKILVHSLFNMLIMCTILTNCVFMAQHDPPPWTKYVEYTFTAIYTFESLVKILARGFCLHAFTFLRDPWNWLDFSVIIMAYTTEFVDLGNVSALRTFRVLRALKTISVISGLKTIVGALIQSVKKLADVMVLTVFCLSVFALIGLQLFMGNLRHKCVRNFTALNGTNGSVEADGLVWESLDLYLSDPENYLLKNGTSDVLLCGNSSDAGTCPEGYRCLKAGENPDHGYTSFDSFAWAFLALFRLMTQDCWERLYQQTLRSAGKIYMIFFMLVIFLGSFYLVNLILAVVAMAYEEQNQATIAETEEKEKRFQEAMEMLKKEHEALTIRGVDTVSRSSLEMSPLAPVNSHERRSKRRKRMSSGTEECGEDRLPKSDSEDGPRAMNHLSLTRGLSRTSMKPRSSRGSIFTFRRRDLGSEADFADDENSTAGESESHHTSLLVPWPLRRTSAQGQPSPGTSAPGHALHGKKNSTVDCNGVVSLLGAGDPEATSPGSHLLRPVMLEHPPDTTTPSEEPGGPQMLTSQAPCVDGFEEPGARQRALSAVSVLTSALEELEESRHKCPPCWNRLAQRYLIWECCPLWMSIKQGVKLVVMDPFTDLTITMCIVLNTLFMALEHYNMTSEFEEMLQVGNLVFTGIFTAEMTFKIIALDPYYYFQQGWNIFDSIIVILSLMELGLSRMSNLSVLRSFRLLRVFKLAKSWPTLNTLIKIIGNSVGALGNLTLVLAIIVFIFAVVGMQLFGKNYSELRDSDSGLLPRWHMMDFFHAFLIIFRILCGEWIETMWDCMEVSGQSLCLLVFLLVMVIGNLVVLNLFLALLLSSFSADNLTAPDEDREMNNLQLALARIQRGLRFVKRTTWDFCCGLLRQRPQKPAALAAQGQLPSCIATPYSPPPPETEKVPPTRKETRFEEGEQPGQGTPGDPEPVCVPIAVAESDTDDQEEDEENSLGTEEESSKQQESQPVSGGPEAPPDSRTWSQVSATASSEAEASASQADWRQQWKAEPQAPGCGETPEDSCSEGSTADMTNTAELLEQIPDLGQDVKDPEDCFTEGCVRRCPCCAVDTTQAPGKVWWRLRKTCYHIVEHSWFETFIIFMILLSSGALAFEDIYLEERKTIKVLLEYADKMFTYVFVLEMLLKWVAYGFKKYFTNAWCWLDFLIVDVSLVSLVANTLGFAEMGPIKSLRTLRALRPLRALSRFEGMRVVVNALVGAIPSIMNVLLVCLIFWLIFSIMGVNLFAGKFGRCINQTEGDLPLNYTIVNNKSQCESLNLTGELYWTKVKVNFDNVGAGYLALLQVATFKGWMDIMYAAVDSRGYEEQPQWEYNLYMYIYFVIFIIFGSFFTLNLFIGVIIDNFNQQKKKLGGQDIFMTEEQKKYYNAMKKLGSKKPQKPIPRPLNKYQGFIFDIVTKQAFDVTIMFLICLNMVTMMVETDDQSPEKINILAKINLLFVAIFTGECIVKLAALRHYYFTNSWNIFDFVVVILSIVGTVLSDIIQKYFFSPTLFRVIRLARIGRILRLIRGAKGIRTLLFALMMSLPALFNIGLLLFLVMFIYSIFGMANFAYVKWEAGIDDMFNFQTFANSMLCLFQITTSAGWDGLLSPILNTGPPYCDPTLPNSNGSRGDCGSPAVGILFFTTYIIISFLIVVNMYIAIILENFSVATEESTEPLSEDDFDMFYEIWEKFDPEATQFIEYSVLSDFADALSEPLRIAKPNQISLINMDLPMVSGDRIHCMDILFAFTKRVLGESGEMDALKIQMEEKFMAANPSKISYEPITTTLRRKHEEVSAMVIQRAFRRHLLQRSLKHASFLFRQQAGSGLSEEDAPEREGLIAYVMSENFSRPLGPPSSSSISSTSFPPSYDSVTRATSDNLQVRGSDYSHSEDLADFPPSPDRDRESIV

concentration at 24 h [1]: 50100 ng/g
fraction unbound [3]: 0.089
remaining at 4 h, 10 µM [4]: 98.2%
microsomal CLint at 2 h, 1 µM [5]: 6.4 µL/min/mg
bioavailability [6]: 122%
pIC50 [7]: < 4.52
concentration at 24 h [8]: 1490 ng/g
Drug metabolism [9]: Metabolite_Notdetected
MRT last at 24 h [10]: 8.5 h
Drug metabolism [12]: Metabolite_Notdetected
pIC50 [13]: < 5.00
half-life [14]: 5.1 h
microsomal CLint at 2 h, 1 µM [15]: 8 µL/min/mg
SMILES: C[C@H]1CCN1c1nc(N2CC[C@H](CCC(=O)O)C2)c2c(n1)C(F)(F)CC2
inhibition [2]: Active
pIC50 [11]: < 4.52
